# Legend:
# [1] = test system: 18-20 Div hippocampal neurons; test: Gramicidin perforated patch-clamp, EGABA in hippocampal neurons; assay type: cell-based, Sprague Dawley; conditions: 300 nM
# Protocol: Neuronal Cultures. Hippocampal neurons were prepared from Sprague Dawley E18 embryos and plated at 450,000 per dish and maintained at 37° C. in a humidified 5% CO2 incubator for 10-25 days before experimentation (Lee et al., Nat. Neurosci. 14, 736-743 (2011)).
# At this developmental stage, GABAAR receptor activation leads to hyperpolarization, a phenomenon critically dependent upon KCC2 (Kontou et al., J Biol Chem, 100364 (2021)).
# Neuronal Patch clamp assays. Neuronal cell culture recordings were performed in bath saline at 34° C. For gramicidin perforated-patch experiments, pipettes contained (in mM): 140 KCl and 10 HEPES, pH 7.4 KOH. For whole-cell experiments, pipettes contained (in mM): 115 K-meth-SO4, 30 KCl, 2 Mg-ATP, 4 Na-ATP, 0.4 Na-GTP, and 10 HEPES, pH 7.4 KOH. Bath saline contained the following (in mM): 140 NaCl, 2.5 KCl, 2.5 CaCl2, 2.5 MgCl2, 10 HEPES, and 11 glucose, pH 7.4 NaOH (Kontou et al., 2021, supra). All compound solutions were applied to cells using a three-barreled 700 μm pipe positioned just above the cell (Warner Instruments). […] All voltages from whole-cell experiments were corrected offline using a calculated liquid junction potential value (13.6 mV) in Clampex (Molecular Devices). For gramicidin perforated-patch experiments, intracellular Cl^− values were back-calculated using measured EGABA values and the Nernst equation: […]
# NKCC1 = biological target: T1, NKCC1 (Homo sapiens, UniProt P55011); test: Tl+ flux assay, HEK-293 cells expressing NKCC1; assay type: cell-based; conditions: read-out: concentration at which effects on NKCC1 were seen (EC50, FIG. 1G)
# T1 construct: expressed in transfected cells; host or cells: HEK-293
# T1 sequence (P55011 1-1212): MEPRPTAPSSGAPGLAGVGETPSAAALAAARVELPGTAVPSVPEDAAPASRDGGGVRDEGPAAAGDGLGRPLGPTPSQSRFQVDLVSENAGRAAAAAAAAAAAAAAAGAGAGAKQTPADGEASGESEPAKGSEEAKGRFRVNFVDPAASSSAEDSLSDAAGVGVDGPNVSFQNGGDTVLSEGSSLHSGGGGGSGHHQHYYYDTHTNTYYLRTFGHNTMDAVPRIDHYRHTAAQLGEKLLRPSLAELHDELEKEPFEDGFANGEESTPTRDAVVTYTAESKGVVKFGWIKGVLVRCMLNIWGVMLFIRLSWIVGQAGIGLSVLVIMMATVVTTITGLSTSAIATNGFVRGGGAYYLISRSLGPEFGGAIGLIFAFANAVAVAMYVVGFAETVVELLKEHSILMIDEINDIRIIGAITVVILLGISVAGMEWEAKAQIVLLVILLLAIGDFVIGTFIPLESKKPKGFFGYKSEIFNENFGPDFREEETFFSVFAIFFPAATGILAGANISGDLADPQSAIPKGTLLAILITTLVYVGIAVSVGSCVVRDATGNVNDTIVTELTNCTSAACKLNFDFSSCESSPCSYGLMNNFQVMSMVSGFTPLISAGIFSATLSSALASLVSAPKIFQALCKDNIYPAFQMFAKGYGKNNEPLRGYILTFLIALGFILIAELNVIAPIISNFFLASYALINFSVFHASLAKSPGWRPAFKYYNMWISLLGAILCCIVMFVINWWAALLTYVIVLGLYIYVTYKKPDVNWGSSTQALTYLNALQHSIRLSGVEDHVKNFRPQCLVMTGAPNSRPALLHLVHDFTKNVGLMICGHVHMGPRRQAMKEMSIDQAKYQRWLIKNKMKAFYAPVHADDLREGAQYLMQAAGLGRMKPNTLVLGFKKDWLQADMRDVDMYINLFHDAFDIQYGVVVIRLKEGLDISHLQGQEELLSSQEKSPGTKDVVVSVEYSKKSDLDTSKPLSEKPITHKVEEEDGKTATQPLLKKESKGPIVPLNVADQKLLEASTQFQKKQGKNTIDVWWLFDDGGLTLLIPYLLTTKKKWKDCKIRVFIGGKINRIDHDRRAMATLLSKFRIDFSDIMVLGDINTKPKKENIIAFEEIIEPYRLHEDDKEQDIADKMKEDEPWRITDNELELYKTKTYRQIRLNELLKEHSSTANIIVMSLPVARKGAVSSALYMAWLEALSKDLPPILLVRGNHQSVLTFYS
# Protocol: FLIPR TI Flux assay. HEK-293 cells were washed with HBSS, and then incubated with loading buffer containing TI sensitive fluorescent dye (https://www.moleculardevices.com), 20 μM bumetanide 20 μM ouabain and 2.5 mM probenecid for 1 h at room temperature (RT) under control conditions or with drugs in the dark using a FlexStation 3 microplate reader (Molecular Devices) and imaged […] for 30 min. Stimulus buffer was added containing 5 mM K^+/0.5 mM Tl^+ and cells were imaged every 1.5 over a 190 second time course The initial rate Tl^+ uptake (Relative Fluorescence Units (RFU) per second) was determined following addition of the stimulus buffer as outlined previously (Conway et al., 2017, supra) (Lee et al., 2022, supra).
# Several studies have shown that the activity and plasma membrane accumulation of KCC2 is potentiated via phosphorylation of S940, a process mediated by the activity of protein kinase C and protein phosphatase 1 (Lee et al, 2011, supra; Lee et al., J Biol Chem 282, 29777-29784 (2007); Moore et al., Proc. Natl. Acad. Sci. U.S.A 115, 10166-10171 (2018); Moore et al., Trends Neurosci. 40, 555-571 (2017); Silayeva et al., Proc. Natl. Acad. Sci. U.S.A. 112, 3523-3528 (2015)). […] Compared to KCC2, effects on KCC3, KCC4, and NKCC1 were only seen at concentrations more than 35-fold that of KCC2 (>100 μM) (FIG. 1G).
# acute brain slices = test: Late recurrent discharges in acute brain slices exposed to 0-Mg
smiles,measurement,setting,value
"C[C@@H]1CN(c2nc3c(c(Nc4ccc(C5CCCCC5)cc4)n2)COC3)CCO1 [Compound A, (R)—N-(4-cyclohexylphenyl)-2-(2-methylmorpholino)-5,7-dihydrofuro[3,4-d]pyrimidin-4-amine]",reduction in Cl−,"[1]; 15 min, calculated from EGABA",2.2 ± 0.6 mM
same,EGABA at 15 min,"[1]; from −75±3.1 at 0 min, bumetanide and TTX present",−85.1±4.2 mV
same,EC50,NKCC1,> 100 µM
same,development of late recurrent discharges (LRDs),acute brain slices,reduced

# Reference: patent US20250281499A1, “FUSED AMINO PYRIMIDINE COMPOUNDS FOR TREATMENT OF NEUROPATHIC AND NEURO-INFLAMMATORY PAIN” (Ovid Therapeutics Inc., priority 2024, published 2025)
